Values joined by “and” are separate entries in the source; they are usually repeats but may differ in a detail not shown here. Equal values may be shown once.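 Protocol summary: plate cells (96-well), add compound at 5 concentrations, incubate 48 h, interpolate endpoints linearly. Here, GI50 denotes the concentration required for 50% inhibition of growth. Definition used: TGI = concentration required for complete inhibition of growth.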
Assays:
Assay in all cases: NCI tumour cell line growth inhibition, 48 h
[1] = system: UO-31 renal
[2] = system: OVCAR-8 ovarian
[3] = system: SF-268 CNS
[4] = system: SK-MEL-28 melanoma
[5] = system: HCC-2998 colon
[6] = system: HOP-92 NSCLC
[7] = system: NCI-H522 lung
[8] = system: CCRF-CEM leukemia
[9] = system: KM20L2 colon

Row | SMILES | GI50 [1] | TGI [1] | GI50 [2] | TGI [2] | GI50 [3] | TGI [3] | GI50 [4] | TGI [4] | GI50 [5] | TGI [5] | GI50 [6] | TGI [6] | GI50 [7] | TGI [7] | GI50 [8] [µM] | TGI [8] [µM] | TGI [9] [µM]
1 | c1ccc(Oc2c3ccccc3nc3ccccc23)cc1 | 5.64 µM | 19.1 µM | 6.22 µM | 24.8 µM | 5.28 µM | 17.3 µM | 11.3 µM | 24.1 µM | 2.87 µM | 7.97 µM | 2.24 µM | 8.63 µM | 2.22 µM | 10.7 µM | 1.12 | > 100 | –
2 | Cc1c2ncccc2c(C)c2c1[nH]c1ccc(O)cc12 | 8.04 µM | 16.7 µM and 28.4 µM | 4.99 µM and 2.86 µM | 18.2 µM and 32.1 µM | 7.55 µM | 19.1 µM | – | 27.3 µM | – | 17.9 µM and 12.3 µM | – | 17.3 µM | – | 19.6 µM | 4.65 | 5.49 | –
3 | Cc1ccc2c(/C=C/C(=O)c3cc(CN4CCOCC4)c(O)c4nc(C)ccc34)cc(CN3CCOCC3)c(O)c2n1 | 0.371 µM | 1.6 µM | 0.588 µM | > 100 µM | 0.81 µM | 8.66 µM | 1.08 µM | 12 µM | 1.1 µM | 2.76 µM | 1.11 µM | 9.78 µM | 0.332 µM | 2 µM | 0.322 | 1.12 | –
4 | OCc1ccc(N(Cc2ccc(F)cc2)C2CCC2)cc1Cl | 1.88 µM | 15.2 µM | 13.4 µM | 29.1 µM | 18.1 µM | 33.9 µM | 13.5 µM | 26.4 µM | 5.42 µM | 22.7 µM | 0.3 µM | 6.69 µM | 13 µM | 28.6 µM | 14.9 | 34.6 | –
5 | CC1/C=C/C=C/CC/C=C/C=C/C=C/C=C/C(OC2OC(C)C(O)C(N)C2O)CC2OC(CC(O)C(O)CCC(O)CC(O)CC(O)CC(=O)OC(C)C(C)C1O)CC(O)C2C(=O)O (configuration not stated) | 20 µg/mL | 35.8 µM and 40.6 µg/mL | 33.3 µg/mL | 47 µM and 74.6 µg/mL | 33.9 µg/mL | 56.9 µM and 70.7 µg/mL | 25.7 µg/mL | 37 µM and 46.3 µg/mL | 19.1 µg/mL | 30.8 µM and 44.6 µg/mL | 42.5 µg/mL | > 100 µM and 150 µg/mL | 29.8 µg/mL | 34.3 µM and 53.7 µg/mL | – | 59.4 | –
6 | N#C[C@]12CC3(CC[C@H]1CC1(C2)OCCO1)OCCO3 | – | > 100 µM | – | > 100 µM | – | > 100 µM | – | > 100 µM | – | > 100 µM | – | – | – | > 100 µM | – | > 100 | > 100
7 | COc1ccc(C(=O)c2cc(OC)c(OC)c(OC)c2)cc1/C=C/C(=O)c1ccc(O)cc1 | 3.2 µM | 16.2 µM | 4.48 µM | > 100 µM | 3.98 µM | 95.1 µM | 4.75 µM | 17.5 µM | 1.66 µM | 3.16 µM | 1.21 µM | 3.31 µM | 2.69 µM | 15.8 µM | 0.872 | > 100 | –
8 | COc1ccc2c(CN3CCC(CO)CC3)cc3cc4c(cc3c2c1)OCO4 | 0.252 µM | 19 µM | 0.0844 µM | 2.19 µM | 0.176 µM | 2.47 µM | 0.326 µM | 1.15 µM | 0.194 µM | 1.41 µM | 0.0911 µM | 0.633 µM | 0.135 µM | 0.363 µM | – | 0.373 | –
9 | O=C(Nc1ncc([N+](=O)[O-])s1)c1cccc([N+](=O)[O-])c1 | 2.55 µM | 9.87 µM | 3.2 µM | 20.3 µM | 8.25 µM | > 100 µM | 4.64 µM | > 55.5 µM | 3.2 µM | > 100 µM | 1.99 µM | 6.86 µM | 3.18 µM | 65.9 µM | 2.39 | > 29.2 | –
10 | COc1cc(/C=C2\CC(C)CC3C2=NN(c2ccccc2)C3c2cc(OC)c(OC)c(OC)c2)cc(OC)c1OC (configuration not stated) | 22 µM | > 100 µM | 10.2 µM | > 100 µM | 14.1 µM | 44.6 µM | 11.2 µM | 39.7 µM | 17.9 µM | 37.5 µM | 13.6 µM | 37.1 µM | 10.2 µM | 59.3 µM | 7.75 | > 100 | –
11 | CCN(Cc1ccc(F)cc1F)c1ccc(CO)c(Cl)c1 | 4.52 µM | 43.8 µM | 12.9 µM | 41.3 µM | 22.7 µM | > 66.9 µM | 14.1 µM | 27.7 µM | 4.26 µM | 20.4 µM | 1.18 µM | 16.5 µM | 14.8 µM | 37.6 µM | 23.9 | > 88.5 | –

Reference: PubChem BioAssay (NCI)
